Laboratory results published in patent US20220226257A1, “USE OF CANNABINOIDS IN THE TREATMENT OF COM[…] EPILEPSY” (GW Research Limited, priority 2019, published 2022).

Columns and labels:
[1] = tested on: epileptic male Wistar rats (RISE-SRS); details: shown previously; cited from earlier work
[2] = tested on: children and young adults with severe, childhood onset treatment-resistant epilepsy (TRE); experiment: Principal component analysis of QOLCE survey data, open label (expanded access) study of CBD; format: in vivo, human
Protocol: PCA is a useful tool to visualise relatedness between populations of data and was used in the present example to determine the symptom domains that were improved during an open label study of cannabidiol (CBD) in patients with treatment resistant epilepsy.
(§1) Children and young adults with severe, childhood onset treatment-resistant epilepsy (TRE) were tested with a highly purified extract of cannabidiol (CBD) obtained from a cannabis plant. The participants in the study were part of an expanded access compassionate use program for CBD.
(§2) All patients entered a baseline period of 4 weeks when parents/caregivers kept prospective seizure diaries, noting all countable motor seizure types.
(§3) The patients then received a highly purified CBD extract (greater than 98% CBD w/w) in sesame oil, of known and constant composition, at a dose of 5 mg/kg/day in addition to their baseline anti-epileptic drug (AED) regimen.
(§4) Laboratory testing for hematologic, liver, kidney function, and concomitant AED levels was performed at baseline, and at regular intervals throughout the 12 weeks of the study.
The Quality of Life in Childhood Epilepsy (QOLCE) survey was used to measure multiple QOL domains. […] The QOLCE questionnaire assessed 91 items divided into five sub-domains: physical function; cognitive function; emotional well-being; social function and behaviour. General health was also recorded. […]

[3] = tested on: children and young adults with treatment resistant epilepsy associated with Dravet syndrome and Lennox-Gastaut syndrome; experiment: Principal component analysis of QOLCE survey data pooled from three randomised controlled clinical trials; format: in vivo, human
Text: As described in Example 1 above PCA is a useful tool to scrutinise data which have several variables. A similar analysis was undertaken on the data produced using data pooled from three randomised controlled clinical trials on children and young adults with treatment resistant epilepsy associated with Dravet syndrome (one trial) and Lennox-Gastaut syndrome (LGS) (2 trials).
In the two placebo-controlled studies of CBD as a treatment for seizures associated with LGS, cannabidiol (CBD) was used as add-on treatment in patients who were defined as treatment-resistant. Patients had previously tried and stopped using a median of 6 AEDs and were being maintained on a median of 3 AEDs.
The first study was a 1:1 randomised, double-blind, 14-week comparison of cannabidiol oral solution (CBD-OS) versus placebo. The treatment period consisted of a two-week titration period followed by a 12-week maintenance period. The treatment period was followed by a 10-day taper period and a four-week follow-up period. […]
The Quality of Life in Childhood Epilepsy (QOLCE) survey was used to measure multiple QOL domains. […] The QOLCE questionnaire assessed 91 items divided into five sub-domains: physical function; cognitive function; emotional well-being; social function and behaviour. General health was also recorded.

[4] = tested on: paediatric patients with epilepsy; details: care-giver-reported, 12 weeks open label; cited from earlier work
[5] = tested on: patients with Lennox-Gastaut syndrome; experiment: Biostatistical analysis of QOLCE subscale scores versus placebo, randomised controlled trial; format: in vivo, human; set-up: key to Biostatistical analysis of QOL subscale score versus placebo: ↔: no change (indicated by); ↑: a difference of greater than 10 points between medians (indicated by t); this change was statistically significant (indicated by *); details: 20 mg/kg/day
Text: The following example uses biostatistical analysis to look for trends in QOL data collected in a randomised controlled trial of cannabidiol in patients with Lennox-Gastaut syndrome.
This study was a 1:1 randomised, double-blind, 14-week comparison of cannabidiol oral solution (CBD-OS) versus placebo. The treatment period consisted of a two-week titration period followed by a 12-week maintenance period. The treatment period was followed by a 10-day taper period and a four-week follow-up period. The study aimed to determine the efficacy, safety and tolerability of 20 mg/kg/day cannabidiol compared with placebo.
The Quality of Life in Childhood Epilepsy (QOLCE) survey was used to measure multiple QOL domains. Caregivers completed the survey at baseline and after the 12 weeks of treatment. The QOLCE questionnaire assessed 91 items divided into five sub-domains: physical function; cognitive function; emotional well-being; social function and behaviour. General health was also recorded.
Table 6 below details the areas where there no change (indicated by or a difference of greater than 10 points between medians (indicated by t), and whether this change was statistically significant (indicated by *).

[6] = tested on: patients suffering from epilepsy syndromes (childhood onset treatment-resistant epilepsy); experiment: Case study analysis of quality of life measures, open label study (expanded access programme); format: in vivo, human
Protocol: The present example provides further data on additional epilepsy syndromes which were studied as part of the expanded access programme described in Example 1.
as §1, §2, §3, §4
Table 7 below details the results obtained at the end of the study period (after between 12 and 108 weeks) from patients suffering from epilepsy syndromes in an open label study.

Structure (SMILES): C=C(C)[C@@H]1CCC(C)=C[C@H]1c1c(O)cc(CCCCC)cc1O [CBD, Cannabidiol]
- cognitive performances of rats exhibiting spontaneous recurrent seizures [1]: restore the deteriorated cognitive performances
- seizure ratio of rats exhibiting spontaneous recurrent seizures [1]: improved the seizure ratio
- areas where improvement was observed without an improvement of seizures ([2]; bottom right area of the biplot): control/helplessness and stigma item
- areas associated with quality of life with improvements (right of the zero F1 axis) ([2]; open label study, 12 weeks, 5 to 50 mg/kg/day): attention and concentration; QOL item; energy/fatigue; control/helplessness and stigma item
- areas of QOL improved despite no improvement in seizure burden [3]: memory; language; control/helplessness; stigma item and cognition
- areas associated with quality of life with improvements ([3]; 10 or 20 mg/kg/day): quality of life item; general health; social interactions; social activities; attention/concentration; overall quality of life; memory; language; control/helplessness; stigma item and cognition
- QOLCE areas with improvements [4]: energy/fatigue; memory; other cognitive functions; control/helplessness; social interactions; behaviour and global quality of life
- QOL domains with a significant increase above baseline ([5]; Lennox-Gastaut syndrome): memory and language
- domains with a decrease in quality of life ([5]; Lennox-Gastaut syndrome): no domains where there was a decrease in quality of life
- Biostatistical analysis of QOL subscale score versus placebo ([5]; QOL subscale: Anxiety): ↔
- Biostatistical analysis of QOL subscale score versus placebo ([5]; QOL subscale: Attention / concentration): ↔
- Biostatistical analysis of QOL subscale score versus placebo ([5]; QOL subscale: Behaviour): ↔
- Biostatistical analysis of QOL subscale score versus placebo ([5]; QOL subscale: Control / helplessness): ↔
- Biostatistical analysis of QOL subscale score versus placebo ([5]; QOL subscale: Depression): ↔
- Biostatistical analysis of QOL subscale score versus placebo ([5]; QOL subscale: Energy/fatigue): ↔
- Biostatistical analysis of QOL subscale score versus placebo ([5]; QOL subscale: General health): ↔
- Biostatistical analysis of QOL subscale score versus placebo ([5]; QOL subscale: Language): ↑*
- Biostatistical analysis of QOL subscale score versus placebo ([5]; QOL subscale: Memory): ↑*
- Biostatistical analysis of QOL subscale score versus placebo ([5]; QOL subscale: Other cognitive): ↑*
- Biostatistical analysis of QOL subscale score versus placebo ([5]; QOL subscale: Physical restriction): ↔
- Biostatistical analysis of QOL subscale score versus placebo ([5]; QOL subscale: Self-esteem): ↔
- Biostatistical analysis of QOL subscale score versus placebo ([5]; QOL subscale: Social activities): ↔
- Biostatistical analysis of QOL subscale score versus placebo ([5]; QOL subscale: Social interaction): ↑ (a difference of greater than 10 points between medians (indicated by t))
- Biostatistical analysis of QOL subscale score versus placebo ([5]; QOL subscale: Stigma item): ↔
- patients with a positive response (slightly improved; much improved or very much improved) ([6]; of the 39 patients for which data were recorded): 34
- QOL measure: Very much improved ([6]; patient 245-01, SNAP25, end of study period): ✓
- QOL measure: Very much improved ([6]; patient 245-03, FIRES, end of study period): ✓
- QOL measure: Much improved ([6]; patient 245-06, DUP15Q, end of study period): ✓
- QOL measure: Very much improved ([6]; patient 245-08, CDKL5, end of study period): ✓
- QOL measure: Very much improved ([6]; patient 245-11, CDKL5, end of study period): ✓
- QOL measure: Very much improved ([6]; patient 245-12, Aicardi, end of study period): ✓
- QOL measure: Much improved ([6]; patient 245-28, Aicardi, end of study period): ✓
- QOL measure: Much improved ([6]; patient 245-32, DUP15Q, end of study period): ✓
- QOL measure: Very much improved ([6]; patient 245-37, CDKL5, end of study period): ✓
- QOL measure: Slightly improved ([6]; patient 245-38, CDKL5, end of study period): ✓
- QOL measure: Much improved ([6]; patient 245-40, DUP15Q, end of study period): ✓
- QOL measure: Much improved ([6]; patient 245-42, DUP15Q, end of study period): ✓
- QOL measure: Slightly improved ([6]; patient 245-43, DUP15Q, end of study period): ✓
- QOL measure: Slightly improved ([6]; patient 245-45, CDKL5, end of study period): ✓
- QOL measure: Very much improved ([6]; patient 245-47, CDKL5, end of study period): ✓
- QOL measure: Very much improved ([6]; patient 245-48, CDKL5, end of study period): ✓
- QOL measure: Slightly worse ([6]; patient 245-56, CDKL5, end of study period): ✓
- QOL measure: Much improved ([6]; patient 245-57, Aicardi, end of study period): ✓
- QOL measure: Much improved ([6]; patient FIL-01, Aicardi, end of study period): ✓
- QOL measure: Very much improved ([6]; patient FIL-09, Doose, end of study period): ✓
- QOL measure: Much improved ([6]; patient FIL-14, Doose, end of study period): ✓
- QOL measure: Slightly worse ([6]; patient FIL-25, Aicardi, end of study period): ✓
- QOL measure: No change ([6]; patient FLAM-25, Tuberous sclerosis, end of study period): ✓
- QOL measure: Very much improved ([6]; patient LCH-04, Aicardi, end of study period): ✓
- QOL measure: No change ([6]; patient LCH-08, Aicardi, end of study period): ✓
- QOL measure: Very much improved ([6]; patient LCH-12, Aicardi, end of study period): ✓
- QOL measure: Very much improved ([6]; patient LCH-18, FIRES, end of study period): ✓
- QOL measure: Very much improved ([6]; patient LCH-21, CDKL5, end of study period): ✓
- QOL measure: Very much improved ([6]; patient LCH-22, Tuberous sclerosis, end of study period): ✓
- QOL measure: Much worse ([6]; patient MAR-E1, FIRES, end of study period): ✓
- QOL measure: Very much improved ([6]; patient MAR-E2, FIRES, end of study period): ✓
- QOL measure: Very much improved ([6]; patient PAT-10, Aicardi, end of study period): ✓
- QOL measure: Very much improved ([6]; patient PAT-11, Aicardi, end of study period): ✓
- QOL measure: Very much improved ([6]; patient PAT-21, Aicardi, end of study period): ✓
- QOL measure: Much improved ([6]; patient PAT-26, Aicardi, end of study period): ✓
- QOL measure: Much improved ([6]; patient WIL-02, Sturge Weber, end of study period): ✓
- QOL measure: Much improved ([6]; patient WIL-05, Doose, end of study period): ✓
- QOL measure: Much improved ([6]; patient WIL-09, CDKL5, end of study period): ✓
- QOL measure: Much improved ([6]; patient WIL-10, Angelman, end of study period): ✓
- quality of life in patients with additional epilepsy syndromes ([6]; tuberous sclerosis, CDKL5, Sturge Weber, Doose, Angelman, SNAP25, FIRES, DUP15Q, Aicardi): observable improvement in quality of life
